In ChEMBL document CHEMBL4393707, “Synthesis and evaluation of new quinazolin-4(3H)-one derivatives as potent antibacterial agents against multidrug resistant Staphylococcus aureus and Mycobacterium tuberculosis” (Eur J Med Chem, 2019):
In brackets after ≈: the same amount, converted by molar mass. Activity calls are given as the source filed them. The calls are words filed in the database; no cut-off is given here.

Tests used:
[1] = system: Pseudomonas aeruginosa; test: Antibacterial activity against Pseudomonas aeruginosa ATCC 27853 incubated for 16 to 18 hrs by broth microdilution assay; type: functional
[2] = system: Staphylococcus aureus; test: Synergistic antibacterial activity against Staphylococcus aureus ATCC 29213 assessed as sum of FIC for test compound in presence of linezolid and FIC for linezolid in presence of test compound incubated for 24 hrs by checkerboard titration assay; type: functional
[3] = system: Staphylococcus aureus; test: Synergistic antibacterial activity against Staphylococcus aureus ATCC 29213 incubated for 24 hrs in presence of rifampicin by checkerboard titration assay; type: functional; settings: ATCC 29213, 24 h
[4] = system: Staphylococcus aureus; test: Synergistic antibacterial activity against Staphylococcus aureus ATCC 29213 incubated for 24 hrs in presence of vancomycin by checkerboard titration assay; type: functional; settings: ATCC 29213, 24 h
[5] = system: Staphylococcus aureus; test: Synergistic antibacterial activity against Staphylococcus aureus ATCC 29213 assessed as sum of FIC for test compound in presence of gentamycin and FIC for gentamycin in presence of test compound incubated for 24 hrs by checkerboard titration assay; type: functional
[6] = Cytotoxicity against African green monkey Vero cells assessed as reduction in cell viability after 72 hrs by MTT assay; type: cell-based; settings: chlorocebus sabaeus
[7] = system: Staphylococcus aureus; test: Potentiation of daptomycin-induced antibacterial activity against Staphylococcus aureus ATCC 29213 assessed as FIC incubated for 24 hrs by checkerboard titration assay; type: functional
[8] = system: Staphylococcus aureus; test: Synergistic antibacterial activity against Staphylococcus aureus ATCC 29213 incubated for 24 hrs in presence of linezolid by checkerboard titration assay; type: functional; settings: ATCC 29213, 24 h
[9] = system: Staphylococcus aureus; test: Antibacterial activity against vancomycin-resistant Staphylococcus aureus VRS4 incubated for 16 to 18 hrs by broth microdilution assay; type: functional
[10] = system: Staphylococcus aureus; test: Synergistic antibacterial activity against Staphylococcus aureus ATCC 29213 incubated for 24 hrs in presence of ceftazidime by checkerboard titration assay; type: functional; settings: ATCC 29213, 24 h
[11] = system: Escherichia coli; test: Antibacterial activity against Escherichia coli ATCC 25922 incubated for 16 to 18 hrs by broth microdilution assay; type: functional
[12] = system: Staphylococcus aureus; test: Antibacterial activity against vancomycin-resistant Staphylococcus aureus VRS1 incubated for 16 to 18 hrs by broth microdilution assay; type: functional
[13] = system: Staphylococcus aureus; test: Antibacterial activity against methicillin-susceptible Staphylococcus aureus ATCC 29213 incubated for 16 to 18 hrs by broth microdilution assay; type: functional
[14] = system: Staphylococcus aureus; test: Antibacterial activity against methicillin-resistant Staphylococcus aureus NR100 incubated for 16 to 18 hrs by broth microdilution assay; type: functional
[15] = system: Staphylococcus aureus; test: Potentiation of meropenem-induced antibacterial activity against Staphylococcus aureus ATCC 29213 assessed as meropenem MIC incubated for 24 hrs by checkerboard titration assay (reference value: 0.25 ug/ml); type: functional; settings: ATCC 29213, 24 h
[16] = system: Staphylococcus aureus; test: Synergistic antibacterial activity against Staphylococcus aureus ATCC 29213 assessed as sum of FIC for test compound in presence of meropenem and FIC for meropenem in presence of test compound incubated for 24 hrs by checkerboard titration assay; type: functional
[17] = system: Staphylococcus aureus; test: Synergistic antibacterial activity against Staphylococcus aureus ATCC 29213 assessed as FIC incubated for 24 hrs in presence of ceftazidime by checkerboard titration assay; type: functional
[18] = system: Staphylococcus aureus; test: Antibacterial activity against vancomycin-resistant Staphylococcus aureus VRS12 incubated for 16 to 18 hrs by broth microdilution assay; type: functional
[19] = system: Staphylococcus aureus; test: Synergistic antibacterial activity against Staphylococcus aureus ATCC 29213 assessed as sum of FIC for test compound in presence of vancomycin and FIC for vancomycin in presence of test compound incubated for 24 hrs by checkerboard titration assay; type: functional
[20] = system: Staphylococcus aureus; test: Synergistic antibacterial activity against Staphylococcus aureus ATCC 29213 assessed as FIC incubated for 24 hrs in presence of daptomycin by checkerboard titration assay; type: functional
[21] = system: Staphylococcus aureus; test: Synergistic antibacterial activity against Staphylococcus aureus ATCC 29213 assessed as FIC incubated for 24 hrs in presence of gentamycin by checkerboard titration assay; type: functional
[22] = system: Staphylococcus aureus; test: Synergistic antibacterial activity against Staphylococcus aureus ATCC 29213 incubated for 24 hrs in presence of meropenem by checkerboard titration assay; type: functional; settings: ATCC 29213, 24 h
[23] = system: Staphylococcus aureus; test: Potentiation of gentamycin-induced antibacterial activity against Staphylococcus aureus ATCC 29213 assessed as FIC incubated for 24 hrs by checkerboard titration assay; type: functional
[24] = system: Staphylococcus aureus; test: Synergistic antibacterial activity against Staphylococcus aureus ATCC 29213 assessed as FIC incubated for 24 hrs in presence of rifampicin by checkerboard titration assay; type: functional
[25] = system: Staphylococcus aureus; test: Potentiation of ceftazidime-induced antibacterial activity against Staphylococcus aureus ATCC 29213 assessed as ceftazidime MIC incubated for 24 hrs by checkerboard titration assay (reference value: […] ug/ml); type: functional; settings: ATCC 29213, 24 h
[26] = Selectivity index, ratio of CC50 for African green monkey Vero cells to MIC for Mycobacterium tuberculosis H37Rv; type: toxicity; settings: read-out: Selectivity Index
[27] = system: Staphylococcus aureus; test: Synergistic antibacterial activity against Staphylococcus aureus ATCC 29213 assessed as FIC incubated for 24 hrs in presence of vancomycin by checkerboard titration assay; type: functional
[28] = system: Staphylococcus aureus; test: Antibacterial activity against Staphylococcus aureus ATCC 29213 assessed as time required to increase 1 log10 CFU at MIC incubated for 1 hr followed by compound washout and measured at 1 hr intervals (reference value: 2 hrs); type: functional
[29] = system: Staphylococcus aureus; test: Antibiofilm activity against Staphylococcus aureus ATCC 29213 at 10 times MIC incubated 48 hrs by crystal violet staining based assay relative to control; type: functional
[30] = system: Staphylococcus aureus; test: Antibacterial activity against Staphylococcus aureus ATCC 29213 assessed as post antibiotic effect time at MIC incubated for 1 hr followed by compound washout and measured at 1 hr intervals (reference value: 0 hrs); type: functional
[31] = system: Staphylococcus aureus; test: Antibacterial activity against Staphylococcus aureus ATCC 29213 assessed as post antibiotic effect time at 10 times MIC incubated for 1 hr followed by compound washout and measured at 1 hr intervals (reference value: 0 hrs); type: functional
[32] = system: Staphylococcus aureus; test: Antimicrobial activity against Staphylococcus aureus ATCC 29213 infected in BALB/c mouse model of neutropenic thigh infection assessed reduction in bacterial levels in thigh at 50 mg/kg, ip administered 3 hrs post infection twice at interval of 3 hrs between injections and measured after 24 hrs; type: functional, organism-based
[33] = system: Staphylococcus aureus; test: Antimicrobial activity against Staphylococcus aureus ATCC 29213 infected in BALB/c mouse model of neutropenic thigh infection assessed reduction in bacterial levels in thigh at 25 mg/kg, ip administered 3 hrs post infection twice at interval of 3 hrs between injections and measured after 24 hrs; type: functional, organism-based
[34] = system: Staphylococcus aureus; test: Antibacterial activity against Staphylococcus aureus ATCC 29213 assessed as time required to increase 1 log10 CFU at 10 times MIC incubated for 1 hr followed by compound washout and measured at 1 hr intervals (reference value: 2 hrs); type: functional
[35] = system: Staphylococcus aureus; test: Antimicrobial activity against Staphylococcus aureus ATCC 29213 infected in ip dosed BALB/c mouse model of neutropenic thigh infection assessed reduction in bacterial levels administered 3 hrs post infection twice at interval of 3 hrs between injections and measured after 24 hrs; type: functional, organism-based

N#Cc1ccc(/C=C/c2nc3cccc(F)c3c(=O)n2-c2cccc(O)c2)cc1
MIC [1]: > 64 µg/mL | FIC [2]: 0.0662 | MIC [3]: 0.0078 µg/mL | MIC [4]: 0.0078 µg/mL | FIC [5]: 0.0703 | CC50 at 72 h [6]: 5 to 100 µg/mL (≈ 13 to 261 µM) | FIC [7]: 0.0019 | MIC [8]: 0.0078 µg/mL | MIC [9]: 0.125 µg/mL (≈ 0.326 µM) | MIC [10]: 0.0078 µg/mL | MIC [11]: > 64 µg/mL | MIC [12]: 0.25 µg/mL (≈ 0.652 µM) | MIC [13]: < 0.125 µg/mL | MIC [14]: 0.5 µg/mL (≈ 1.3 µM) | MIC [15]: 0.0009 µg/mL | FIC [16]: 0.0643 | FIC [17]: 0.0625 | MIC [18]: 0.125 µg/mL (≈ 0.326 µM) | FIC [19]: 0.0664 | FIC [20]: 0.0625 | FIC [21]: 0.0625 | MIC [22]: 0.0078 µg/mL | FIC [23]: 0.0078 | FIC [24]: 0.0625 | MIC [25]: 0.0312 µg/mL | selectivity ratio [26]: > 12.5 | FIC [27]: 0.0625

N#Cc1ccc(/C=C/c2nc3ccccc3c(=O)n2-c2ccc(C(=O)O)c(O)c2)cc1
MIC [1]: > 64 µg/mL | Time [28]: 2 h | FIC [2]: 0.036 | MIC [3]: 0.0019 µg/mL | MIC [4]: 0.0019 µg/mL | FIC [5]: 0.04 | Activity [29]: 14.1% | CC50 at 72 h [6]: > 5 µg/mL | Time [30]: 0 h | FIC [7]: 0.003 | MIC [8]: 0.0019 µg/mL | MIC [9]: 0.125 µg/mL (≈ 0.305 µM) | Time [31]: 2 h | MIC [10]: 0.0019 µg/mL | MIC [11]: > 64 µg/mL | MIC [12]: 0.125 to 0.25 µg/mL (≈ 0.305 to 0.611 µM) | MIC [13]: < 0.125 µg/mL | Activity [32]: Active | MIC [14]: 0.125 to 0.25 µg/mL (≈ 0.305 to 0.611 µM) | MIC [15]: 0.0009 µg/mL | Activity [33]: Active | FIC [16]: 0.036 | FIC [17]: 0.032 | MIC [18]: 0.125 µg/mL (≈ 0.305 µM) | FIC [19]: 0.036 | FIC [20]: 0.032 | FIC [21]: 0.032 | Time [34]: 4 h | MIC [22]: 0.0019 µg/mL | FIC [23]: 0.007 | FIC [24]: 0.032 | MIC [25]: 0.0312 µg/mL | Activity [35]: Dose-dependent effect | FIC [27]: 0.032
